Drawing on patent publication US11286268B1, “EIF4E-inhibiting compounds and methods” (EFFECTOR THERAPEUTICS, INC., priority 2019, dated 2022), this text covers IC50 for 48 compounds.

The target in the assay is recombinant eIF4E (Homo sapiens (Human), UniProt P06730). Kind of assay: Fluorescence polarization competition assay for eIF4E binding potency. In a few lines: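 FP readout; IC50 fit from 8-point, 3-fold series. 75 nM eIF4E + 20 nM ATTO-550-labelled m7GDP probe, Tris pH 7.5/NaCl/DTT/Tween buffer, 1% DMSO final. 30 min RT equilibration, light-protected.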
Setting [1] is: fluorescence polarization competition, 75 nM recombinant eIF4E, 20 nM EDA-m7GDP-ATTO-550, IC50 class, read-out: elF4E FP.
Where [2] appears, read: inhibition of eIF4E/EDA-m7GDP-ATTO-550 binding by 50%, Table 4B calculated values, read-out: IC50.
Where [3] appears, read: inhibition of eIF4E/EDA-m7GDP-ATTO-550 binding, calculated IC50 values, Table 4B, read-out: IC50.

Read-outs that look alike come from different tables or passages of the source.

Sequence of recombinant eIF4E (P06730 whole entry): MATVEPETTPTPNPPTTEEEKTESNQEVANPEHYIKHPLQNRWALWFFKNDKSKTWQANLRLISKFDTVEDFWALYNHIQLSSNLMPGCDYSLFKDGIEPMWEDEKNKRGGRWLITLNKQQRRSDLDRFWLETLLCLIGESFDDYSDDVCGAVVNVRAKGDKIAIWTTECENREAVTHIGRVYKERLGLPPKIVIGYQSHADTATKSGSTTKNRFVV

As for `N#Cc1cc2c(=O)n(C/C=C/c3ccc(Cl)cc3-c3cccc(C(=O)O)c3)cnc2cn1` [compound 41], the IC50 under setting [1] is above 1000 nM and the IC50 under setting [2] is 3440 nM.

As to `N#Cc1cc2c(=O)n(CCOc3ccc(Cl)cc3-c3cc(C(=O)O)cc(F)c3F)cnc2cn1` [compound 89], the IC50 was above 1000 nM under setting [1] and above 3000 nM under setting [2].

As for `Cc1nc2cnc(N3CCN(CC(F)F)CC3)c(C#N)c2c(=O)n1CCOc1ccc(Cl)cc1-c1ccnc2c(C(=O)O)csc12` [compound 1303], the IC50 under setting [3] is 36.6 nM.

Turning to `Cc1cc(-c2cc(Cl)ccc2OCCn2c(C)nc3cc(C(C)N(C)C)c(OC(F)F)c(C#N)c3c2=O)c2scc(C(=O)O)c2n1` (stereo not drawn) [compound 710], the IC50 is, setting by setting: under setting [1], below 50 nM; under setting [2], 31.6 nM.

For `Cc1cc(-c2cc(Cl)ccc2OCCn2c(C)nc3cnc(-c4ccccc4C(F)(F)F)c(C#N)c3c2=O)c2scc(C(=O)O)c2n1` [compound 950], the IC50 is below 50 nM under setting [1] and 17.2 nM under setting [2].

With `Cc1nc2cnc(N3CCN(C(C)C(F)F)CC3)c(C#N)c2c(=O)n1CCOc1ccc(Cl)cc1-c1ccnc2c(C(=O)O)csc12` (stereo not drawn) [compound 1312], under setting [3], the IC50 is 8.29 nM.

For the compound `Cc1nc2cc(C(F)(F)F)cc(C#N)c2c(=O)n1CCOc1ccc(Cl)cc1-c1ccnc(C(=O)NS(C)(=O)=O)c1` [compound 1372], under setting [3], the IC50 is 80.7 nM.

Take `O=C(O)c1cccc(-c2cc(Cl)ccc2OCCn2c(Nc3ccccc3)nc3c(O)nccc3c2=O)c1` [compound 2000]: the IC50 under setting [3] was 18200 nM.

As to `Cc1ccc(-c2ncc3nc(C)n(CCOc4ccc(Cl)cc4-c4cc(C)nc5c(C(=O)O)csc45)c(=O)c3c2C#N)cc1` [compound 946], the IC50 runs as follows: under setting [1], below 50 nM; under setting [2], 27.7 nM.

For the compound `Cc1nc2cc(C(F)(F)F)cc(C#N)c2c(=O)n1CCCc1ccc(Cl)cc1-c1cccc(C(=O)O)c1` [compound 146], the IC50 by setting is: under setting [1], 50 to 1000 nM; under setting [2], 259 nM.

With `CCc1sc2c(-c3cc(Cl)ccc3OCCn3c(C)nc4cc(C(F)(F)F)cc(C#N)c4c3=O)ccnc2c1C(=O)O` [compound 591], the IC50 by setting is: under setting [1], below 50 nM; under setting [2], 44.9 nM.

For the compound `CCc1cc(-c2cc(Cl)ccc2OCCn2c(C)nc3cc(C(F)(F)F)c(CC4CCNCC4)c(C#N)c3c2=O)c2scc(C(=O)O)c2n1` [compound 1276], under setting [3], the IC50 is 13.5 nM.

Take `Cc1cc(-c2cc(Cl)ccc2OCCn2c(C)nc3cnc(-c4ccccc4C)c(C#N)c3c2=O)c2scc(C(=O)O)c2n1` [compound 944]: the IC50 by setting is: under setting [1], below 50 nM; under setting [2], 46.2 nM.

For `Cc1cc(-c2cc(Cl)ccc2OCCn2c(C)nc3cc(C(F)(F)F)c(-c4cnc(C)c(C)c4)c(C#N)c3c2=O)c2scc(C(=O)O)c2n1` [compound 389], the IC50 under setting [1] is below 50 nM and the IC50 under setting [2] was 12.3 nM.

As for `Cc1cnc(C)c(-c2c(C(F)(F)F)cc3nc(C)n(CCOc4ccc(Cl)cc4-c4cc(C)nc5c(C(=O)O)csc45)c(=O)c3c2C#N)c1` [compound 902], the IC50 by setting is: under setting [1], below 50 nM; under setting [2], 14.2 nM.

For the compound `Cc1cc(-c2cc(Cl)ccc2OCCn2c(C)nc3cc(C(F)(F)F)c(C)c(C#N)c3c2=O)c2scc(C(=O)O)c2n1` [compound 363], the IC50 was below 50 nM under setting [1] and 22.8 nM under setting [2].

For `N#Cc1cncc2ncn(CCOc3ccc(Cl)cc3-c3cccc(C(=O)O)c3)c(=O)c12` [compound 34], the IC50 is, setting by setting: under setting [1], 50 to 1000 nM; under setting [2], 88.5 nM.

`Cc1nc2cc(Cl)cc(C#N)c2c(=O)n1CCOc1ccc(Cl)cc1-c1ccnc2c(C(=O)O)csc12` [compound 200]: the IC50 under setting [1] was below 50 nM and the IC50 under setting [2] is 43.5 nM.

As to `Cc1nc2cnc(N3CCN(C4CC4)CC3)c(C#N)c2c(=O)n1CC#Cc1ccc(Cl)cc1-c1ccnc2c(C(=O)O)csc12` [compound 1162], the IC50 reads like this: under setting [1], below 50 nM; under setting [2], 21.6 nM.

`Cc1nc2c(C#N)ccc(C#N)c2c(=O)n1CCOc1ccc(Cl)cc1-c1ccnc2c(C(=O)O)csc12` [compound 312]: the IC50 by setting is: under setting [1], 50 to 1000 nM; under setting [2], 75.6 nM.

On to `Cc1cc(-c2cc(Cl)ccc2OCCn2c(C)nc3cnc(N4CCC(O)C4)c(C#N)c3c2=O)c2sc(C)c(C(=O)O)c2n1` (stereo not drawn) [compound 1236], for which the IC50 was below 50 nM under setting [1] and 33.9 nM under setting [3].

`CNc1cc2c(=O)n(CCOc3ccc(Cl)cc3-c3cccc(C(=O)O)c3)c(C)nc2cn1` [compound 2006]: under setting [3], the IC50 was 611 nM.

For the compound `Cc1cc(-c2cc(Cl)ccc2OCCn2c(C)nc3cc(C(F)(F)F)c(CN4CCN(C)CC4)c(C#N)c3c2=O)c2sc(C)c(C(=O)O)c2n1` [compound 417], the IC50 is below 50 nM under setting [1] and 19.7 nM under setting [2].

For `Cc1nc2cnc(N3CCN(C)C(COC(F)(F)F)C3)c(C#N)c2c(=O)n1CC#Cc1ccc(Cl)cc1-c1ccnc2c(C(=O)O)csc12` (stereo not drawn) [compound 1460], the IC50 under setting [3] was 7.99 nM.

For the compound `Cc1nc2cc(C(F)(F)F)c(CN3CCN(C)CC3)c(C#N)c2c(=O)n1CCOc1ccc(Cl)cc1-c1cc(CF)nc2c(C(=O)O)csc12` [compound 645], the IC50 was below 50 nM under setting [1] and 31.3 nM under setting [2].

`Cc1cc(-c2ncc3nc(C)n(CCOc4ccc(Cl)cc4-c4cc(C)nc5c(C(=O)O)csc45)c(=O)c3c2C#N)cc(C)n1` [compound 873]: the IC50 is below 50 nM under setting [1] and 15.7 nM under setting [2].

For the compound `N#Cc1cccc2ncn(CCOc3ccc(Cl)cc3-c3cccc(C(=O)O)c3)c(=O)c12` [compound 73], the IC50 reads like this: under setting [1], 50 to 1000 nM; under setting [2], 83.2 nM.

On to `Cc1c(C(F)F)c2cc(C(F)(F)F)cc(C#N)c2c(=O)n1CCOc1ccc(Cl)cc1-c1ccnc2c(C(=O)O)csc12` [compound 269], for which the IC50 reads like this: under setting [1], below 50 nM; under setting [2], 15.6 nM.

In the case of `Cc1nc2ccc3c(c2c(=O)n1CCOc1ccc(Cl)cc1-c1cccc(C(=O)O)c1)C(=O)N(C)C3` [compound 2011], the IC50 under setting [3] is 529 nM.

Take `Cc1cc(-c2cc(Cl)ccc2OCCn2c(C)nc3cc(C(F)(F)F)c(-c4ccccc4CO)nc3c2=O)c2scc(C(=O)O)c2n1` [compound 346]: the IC50 was below 50 nM under setting [1] and 18.1 nM under setting [2].

Turning to `Cc1cccc(-c2c(C(F)(F)F)cc3nc(C)n(CCOc4ccc(Cl)cc4-c4cc(C)nc5c(C(=O)O)csc45)c(=O)c3c2C#N)n1` [compound 675], the IC50 by setting is: under setting [1], below 50 nM; under setting [2], 7.77 nM.

For `Cc1nc2ccc(C#N)c(C#N)c2c(=O)n1CCOc1ccc(Cl)cc1-c1ccnc2c(C(=O)O)csc12` [compound 228], the IC50 runs as follows: under setting [1], below 50 nM; under setting [2], 23.5 nM.

In the case of `Cc1cccc(-c2c(C(F)(F)F)cc3nc(C)n(CCOc4ccc(Cl)cc4-c4cccc(C(=O)O)c4)c(=O)c3c2C#N)n1` [compound 375], the IC50 by setting is: under setting [1], 50 to 1000 nM; under setting [2], 58 nM.

Consider `Cc1nc2cnc(N3CCC(N(C)C4CC(F)(F)C4)CC3)c(C#N)c2c(=O)n1CC#Cc1ccc(Cl)cc1-c1ccnc2c(C(=O)O)csc12` [compound 1592], for which the IC50 under setting [3] is 20.3 nM.

With `Cc1cc(-c2cc(Cl)ccc2OCCn2c(C)nc3c(C)nc(C4CC4)c(C#N)c3c2=O)c2scc(C(=O)O)c2n1` [compound 742], the IC50 runs as follows: under setting [1], below 50 nM; under setting [2], 32.5 nM.

On to `N#Cc1ncc(CCOc2ccc(Cl)cc2-c2cccc(C(=O)O)c2)c2c(=O)[nH]c(Nc3ccccc3)nc12` [compound 179], for which the IC50 by setting is: under setting [1], below 50 nM; under setting [2], 20.6 nM.

`Cc1cc(-c2cc(Cl)ccc2OCCn2c(C)nc3c(OC(F)F)ncc(C#N)c3c2=O)c2scc(C(=O)O)c2n1` [compound 604]: the IC50 runs as follows: under setting [1], 50 to 1000 nM; under setting [2], 70.7 nM.

Regarding `Cc1cc(-c2cc(Cl)ccc2OCCn2c(C)nc3cc(Cl)c(N4CCN(C)CC4)c(C#N)c3c2=O)c2sc(C)c(C(=O)O)c2n1` [compound 741], the IC50 reads like this: under setting [1], below 50 nM; under setting [2], 15.2 nM.

Turning to `Cc1nc2ccc(OCCN(C)C)c(C#N)c2c(=O)n1CCOc1ccc(Cl)cc1-c1ccnc2c(C(=O)O)csc12` [compound 457], the IC50 under setting [1] was below 50 nM and the IC50 under setting [2] is 11.2 nM.

For the compound `O=C(O)c1cccc(-c2cc(Cl)ccc2OCCn2c(C(F)(F)F)nc3cnc(Cl)cc3c2=O)c1` [compound 2007], under setting [3], the IC50 is above 300000 nM.

`N#Cc1ccc(C#N)c2c(=O)n(CCOc3ccc(Cl)cc3-c3cccc(C(=O)O)c3)cnc12` [compound 1990]: the IC50 under setting [3] was 58.1 nM.

Regarding `Cc1cc(-c2cc(Cl)ccc2OCCn2c(C)nc3c(C)nc(-c4ccccc4Cl)c(C#N)c3c2=O)c2scc(C(=O)O)c2n1` [compound 482], the IC50 under setting [1] was below 50 nM.

In the case of `Cc1cc(-c2cc(Cl)ccc2OCCn2c(C)nc3cnc(-c4ccccc4)c(C#N)c3c2=O)c2scc(C(=O)O)c2n1` [compound 1382], the IC50 under setting [3] was 21.6 nM.

Take `Cc1nc2cc(Cl)c(C#N)c(C#N)c2c(=O)n1CCOc1ccc(Cl)cc1-c1ccnc2c(C(=O)O)csc12` [compound 1949]: under setting [3], the IC50 is 21.6 nM.

As for `Cc1cc(-c2cc(Cl)ccc2OCCn2c(C)nc3cc(C(F)(F)F)c(-c4cncnc4)nc3c2=O)c2scc(C(=O)O)c2n1` [compound 768], the IC50 runs as follows: under setting [1], below 50 nM; under setting [2], 22.4 nM.

Consider `Cc1cccc(-c2ncc3nc(C)n(CCOc4ccc(Cl)cc4-c4cc(C)nc5c(C(=O)O)csc45)c(=O)c3c2C#N)c1` [compound 945], for which the IC50 is below 50 nM under setting [1] and 38.9 nM under setting [2].

For the compound `Cc1cc(-c2cc(Cl)ccc2OCCn2c(C)nc3cnc(C4CC4(F)F)c(C#N)c3c2=O)c2scc(C(=O)O)c2n1` (stereo not drawn) [compound 807], under setting [1], the IC50 is below 50 nM.

Take `Cc1c(CCOc2ccc(Cl)cc2-c2ccnc3c(C(=O)O)csc23)c(=O)c2c(C#N)c(Cl)c(C(F)(F)F)cc2n1C` [compound 361]: the IC50 reads like this: under setting [1], 50 to 1000 nM; under setting [2], 68.4 nM.
